Measured values reported in patent publication US20120088827A1 (Profectus Biosciences, Inc., priority 2009, published 2012).

Experiments:
c-Rel = molecular target: T1, c-Rel (Homo sapiens, UniProt Q04864); assay: TransAM NF-κB Family DNA Binding ELISA, c-Rel
T1 sequence (Q04864 1-619): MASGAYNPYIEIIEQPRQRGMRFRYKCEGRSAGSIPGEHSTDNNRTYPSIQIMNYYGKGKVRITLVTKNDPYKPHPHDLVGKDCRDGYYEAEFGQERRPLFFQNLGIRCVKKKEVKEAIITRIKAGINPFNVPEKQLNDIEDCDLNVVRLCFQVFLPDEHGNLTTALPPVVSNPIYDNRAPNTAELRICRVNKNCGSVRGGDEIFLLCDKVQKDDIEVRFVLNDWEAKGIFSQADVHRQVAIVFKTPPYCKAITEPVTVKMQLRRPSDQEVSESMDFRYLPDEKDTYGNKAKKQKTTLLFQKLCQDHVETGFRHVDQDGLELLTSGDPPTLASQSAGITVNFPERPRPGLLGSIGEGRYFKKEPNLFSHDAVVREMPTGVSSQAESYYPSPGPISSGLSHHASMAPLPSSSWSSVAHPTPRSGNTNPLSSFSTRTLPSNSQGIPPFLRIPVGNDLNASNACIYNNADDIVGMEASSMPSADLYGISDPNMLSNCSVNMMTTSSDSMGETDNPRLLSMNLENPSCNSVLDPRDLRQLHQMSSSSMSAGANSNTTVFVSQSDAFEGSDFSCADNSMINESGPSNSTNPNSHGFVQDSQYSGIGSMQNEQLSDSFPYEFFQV
Description: (§1) The binding activity of NF-κB heterodimer or homodimer subunits from activated nuclear extracts or purified recombinant NF-κB proteins exposed to the drug compounds was evaluated using the TransAM NF-κB Family binding ELISA (Active Motif). Approximately 3-5 μg of nuclear extracts from TNFα activated Hela or Raji cells (Active Motif) or 20 ng of purified recombinant proteins (p65 and p50 from Active Motif, p52 from Santa Cruz) were incubated for 1 hour at room temperature with 20 μL drug compounds diluted in Complete Lysis buffer without DTT. Treated samples were then transferred to 30 μL Complete Binding Buffer (with DTT) in microplate wells pre-coated with the NF-κB consensus oligonucleotide. […] The plate was incubated for 1 hour at room temperature with gentle shaking and then washed 3 times with 200 μL 1× Wash Buffer. NF-κB p65, p50, p52, RelB, or c-Rel subunits bound to the plate were detected with 100 μL of the primary antibody (diluted 1:1000 in 1× Antibody Buffer) specific for that subunit. The plate was incubated for 1 hour at room temperature and then washed 3 times with 200 μL 1× Wash Buffer. Next, 100 μL of a HRP conjugated goat anti-rabbit antibody (diluted 1:1,000 in 1× Antibody Buffer) was added to each well. The plate was incubated for 1 hour at room temperature and then washed 4 times with 200 μL 1× Wash Buffer. 100 μL of room temperature Developing Solution was added to each well. The reaction was allowed to develop for 2-10 minutes until a medium dark blue color developed (depending on the subunit activity in the lot of extract or lot of recombinant protein used) and then the reaction was stopped with 100 μL Stop Solution yielding a yellow color. Absorbance was recorded using a Becton-Dickinson DTX 880 Multimode Detector at 450 nm with a reference wavelength subtracted at 620 nm.

NF-κB p65 = molecular target: T2, NF-κB p65 (Homo sapiens, UniProt Q04206); assay: TransAM NF-κB Family DNA Binding ELISA, p65; settings: binding to NF-κB consensus oligonucleotide; read-out: p65 binding IC50
T2 construct: purchased Active Motif
Description: as §1

[1] = system: NF-κB driven transcription (pNF-κB-luc reporter, 293 cells); assay: 293/NF-kB-luc reporter cell assay; assay type: cell-based; settings: Homo sapiens; compound 2 hours, then 20 ng/ml TNF-α for 18 hours; luminescence
Description: Two reporter cell assays were used to determine the ability of the compounds of Examples 1-12 to inhibit NF-κB driven transcription. The first assay was a 293-cell based assay with a stably integrated pNF-κB-luc reporter plasmid containing 3 NF-κB promoter elements. The second assay was a 293-cell based assay with a stably integrated pTRH1-NF-κB-dscGFP reporter containing 4 NF-κB promoter elements. Cells were treated with 0, 0.2, 1, 10, 20 and 40 μM of the compounds of Example 1-12 for 2 hours then were induced with 20 ng/ml TNF-α for 18 hours. Following the induction, luminescence or fluorescence was quantified using a Beckman-Coulter 2300 plate reader. […] As a control, 0.5% DMSO treated and untreated cells were compared to verify that the compounds of Examples 1-12 had no effect on the expression of luciferase or in the readout of the assay. There was a slight decrease in the output from the assay in the DMSO treated population although it was not statistically significant. As a result of the controls, the decrease in activity in the drug treated samples was compared to the DMSO control sample.

RelB = molecular target: T3, RelB (Homo sapiens, UniProt Q01201); assay: TransAM NF-κB Family DNA Binding ELISA, RelB
T3 sequence (Q01201 1-579): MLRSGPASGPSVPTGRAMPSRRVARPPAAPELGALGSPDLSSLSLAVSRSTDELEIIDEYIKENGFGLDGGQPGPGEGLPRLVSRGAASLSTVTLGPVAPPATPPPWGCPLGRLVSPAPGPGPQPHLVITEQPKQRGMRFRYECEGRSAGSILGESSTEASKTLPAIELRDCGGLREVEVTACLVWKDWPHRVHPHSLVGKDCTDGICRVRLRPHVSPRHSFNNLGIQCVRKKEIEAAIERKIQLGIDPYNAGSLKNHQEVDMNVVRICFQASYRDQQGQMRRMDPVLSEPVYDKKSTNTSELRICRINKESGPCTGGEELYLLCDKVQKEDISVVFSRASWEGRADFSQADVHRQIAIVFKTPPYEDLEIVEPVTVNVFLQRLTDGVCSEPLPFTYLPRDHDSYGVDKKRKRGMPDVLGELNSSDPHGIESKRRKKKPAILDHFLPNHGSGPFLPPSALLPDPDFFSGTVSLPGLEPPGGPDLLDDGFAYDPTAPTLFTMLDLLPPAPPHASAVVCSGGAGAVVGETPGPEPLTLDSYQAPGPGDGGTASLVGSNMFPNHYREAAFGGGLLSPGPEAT
Description: as §1

T2 sequence (Q04206 whole entry): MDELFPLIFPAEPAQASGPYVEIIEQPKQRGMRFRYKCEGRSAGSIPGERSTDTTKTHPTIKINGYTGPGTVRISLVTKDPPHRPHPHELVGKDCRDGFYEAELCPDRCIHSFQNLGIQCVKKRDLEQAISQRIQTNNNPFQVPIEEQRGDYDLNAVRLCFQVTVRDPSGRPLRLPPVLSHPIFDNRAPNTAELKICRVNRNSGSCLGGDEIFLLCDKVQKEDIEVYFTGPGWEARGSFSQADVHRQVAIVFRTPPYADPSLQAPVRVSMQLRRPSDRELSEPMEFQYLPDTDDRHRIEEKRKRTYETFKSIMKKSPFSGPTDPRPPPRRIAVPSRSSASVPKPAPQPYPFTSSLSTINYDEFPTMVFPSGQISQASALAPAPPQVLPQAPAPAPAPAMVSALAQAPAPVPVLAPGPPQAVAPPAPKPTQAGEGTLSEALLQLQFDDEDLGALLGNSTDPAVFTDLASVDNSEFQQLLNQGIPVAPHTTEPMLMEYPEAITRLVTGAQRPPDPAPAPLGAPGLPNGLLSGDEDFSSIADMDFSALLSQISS

SMILES	inhibition at 5 µM (c-Rel) [%]	IC50 (NF-κB p65) [µM]	EC50 [1] [µM]	inhibition at 5 µM (RelB) [%]
CC(C)CC(=O)Oc1ccccc1C(=O)NC1=CC(=O)C2OC2C1O (racemic) [Example 1, (±)-2-(2-hydroxy-5-oxo-7-oxabicyclo[4.1.0]hept-3-en-3-ylcarbamoyl)phenyl 3-methylbutanoate]	1	214	18	0
CC(C)OC(=O)Oc1ccccc1C(=O)NC1=CC(=O)C2OC2C1OC(=O)OC(C)C (racemic) [Example 2, (±)-3-(2-isopropoxycarbonyloxy-benzoylamino)-5-oxo-7-oxa-bicyclo[4.1.0]hept-3-en-2-yl ester isopropyl ester]	0	> 376	11	2
O=C(CC1CCCCC1)Oc1ccccc1C(=O)NC1=CC(=O)C2OC2C1O (racemic) [Example 3, (±)-2-(2-hydroxy-5-oxo-7-oxabicyclo[4.1.0]hept-3-en-3-ylcarbamoyl)phenyl 2-cyclohexylacetate]	3	93	14	3
CCCC(C)C(=O)Oc1ccccc1C(=O)NC1=CC(=O)C2OC2C1O (racemic) [Example 4, (±)-2-(2-hydroxy-5-oxo-7-oxabicyclo[4.1.0]hept-3-en-3-ylcarbamoyl)phenyl 2-methylpentanoate]	9	149	10	5
CCCCC(CC)C(=O)Oc1ccccc1C(=O)NC1=CC(=O)C2OC2C1O (racemic) [Example 5, (±)-2-(2-hydroxy-5-oxo-7-oxabicyclo[4.1.0]hept-3-en-3-ylcarbamoyl)phenyl 2-ethylhexanoate]	9	> 430	15	5
CC(C)(C)CC(=O)Oc1ccccc1C(=O)NC1=CC(=O)C2OC2C1O (racemic) [Example 6, (±)-2-(2-hydroxy-5-oxo-7-oxabicyclo[4.1.0]hept-3-en-3-ylcarbamoyl)phenyl 3,3-dimethylbutanoate]	6	67	8	3
CC(C)OC(=O)Oc1ccccc1C(=O)NC1=CC(=O)C2OC2C1O (racemic) [Example 7, (±)-2-(2-hydroxy-5-oxo-7-oxabicyclo[4.1.0]hept-3-en-3-ylcarbamoyl)phenyl isopropyl carbonate]	5	> 480	17	0
CC(C)OC(=O)OC1C(NC(=O)c2ccccc2O)=CC(=O)C2OC21 (racemic) [Example 8]	2	336	10	2
